Measurements: PubChem BioAssay (NCI)
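Following 48 hours of exposure in 96-well plates, responses at five concentrations were used to interpolate endpoints linearly. TGI marks complete inhibition of growth.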

Experiments:
Assay in all cases: NCI-60 cell line screen, 48 h
UO-31 renal = tested on: UO-31 renal
M14 melanoma = tested on: M14 melanoma
ACHN renal = tested on: ACHN renal
UACC-62 melanoma = tested on: UACC-62 melanoma
SN12C renal = tested on: SN12C renal
T-47D breast = tested on: T-47D breast
SK-MEL-2 melanoma = tested on: SK-MEL-2 melanoma
NCI-H226 lung = tested on: NCI-H226 lung
A498 renal = tested on: A498 renal
NCI-H23 lung = tested on: NCI-H23 lung
HCT-116 colon = tested on: HCT-116 colon
OVCAR-5 ovarian = tested on: OVCAR-5 ovarian
MDA-MB-231 breast = tested on: MDA-MB-231 breast
SR leukemia = tested on: SR leukemia
SK-OV-3 ovarian = tested on: SK-OV-3 ovarian
PC-3 prostate = tested on: PC-3 prostate
SK-MEL-28 melanoma = tested on: SK-MEL-28 melanoma
OVCAR-3 ovarian = tested on: OVCAR-3 ovarian
HT29 colon = tested on: HT29 colon
OVCAR-8 ovarian = tested on: OVCAR-8 ovarian
SF-539 CNS = tested on: SF-539 CNS
CAKI-1 renal = tested on: CAKI-1 renal
SK-MEL-5 melanoma = tested on: SK-MEL-5 melanoma
HCC-2998 colon = tested on: HCC-2998 colon
SW-620 colon = tested on: SW-620 colon
OVCAR-4 ovarian = tested on: OVCAR-4 ovarian
HL-60(TB) leukemia = tested on: HL-60(TB) leukemia
SNB-19 CNS = tested on: SNB-19 CNS
KM12 colon = tested on: KM12 colon
HS 578T breast = tested on: HS 578T breast
K-562 leukemia = tested on: K-562 leukemia
MDA-MB-435 = tested on: MDA-MB-435
SF-268 CNS = tested on: SF-268 CNS
U251 CNS = tested on: U251 CNS
MDA-N = tested on: MDA-N
786-0 renal = tested on: 786-0 renal
HCT-15 colon = tested on: HCT-15 colon
A549 NSCLC = tested on: A549 NSCLC
MCF7 breast = tested on: MCF7 breast
TK-10 renal = tested on: TK-10 renal
MALME-3M melanoma = tested on: MALME-3M melanoma
IGROV1 ovarian = tested on: IGROV1 ovarian
SF-295 CNS = tested on: SF-295 CNS
SNB-75 CNS = tested on: SNB-75 CNS
NCI-H460 lung = tested on: NCI-H460 lung
MOLT-4 leukemia = tested on: MOLT-4 leukemia
RXF 393 renal = tested on: RXF 393 renal
UACC-257 melanoma = tested on: UACC-257 melanoma
RPMI-8226 leukemia = tested on: RPMI-8226 leukemia
CCRF-CEM leukemia = tested on: CCRF-CEM leukemia
DU-145 prostate = tested on: DU-145 prostate
HOP-92 NSCLC = tested on: HOP-92 NSCLC
HOP-62 NSCLC = tested on: HOP-62 NSCLC
COLO 205 colon = tested on: COLO 205 colon
NCI-H522 lung = tested on: NCI-H522 lung
BT-549 breast = tested on: BT-549 breast
EKVX NSCLC = tested on: EKVX NSCLC
LOX IMVI melanoma = tested on: LOX IMVI melanoma
NCI/ADR-RES ovarian = tested on: NCI/ADR-RES ovarian

## CCCCCOc1ccc(Nc2c(O)c3c(c(O)c2Cl)C(=O)C=CC3=O)cc1
UO-31 renal
  TGI: > 9.67 µM
M14 melanoma
  TGI: > 10 µM
ACHN renal
  TGI: > 10 µM
UACC-62 melanoma
  TGI: > 10 µM
SN12C renal
  TGI: > 10 µM
T-47D breast
  TGI: > 9.64 µM
SK-MEL-2 melanoma
  TGI: > 10 µM
NCI-H226 lung
  TGI: > 10 µM
A498 renal
  TGI: > 10 µM
NCI-H23 lung
  TGI: > 6.51 µM
HCT-116 colon
  TGI: > 10 µM
OVCAR-5 ovarian
  TGI: > 10 µM
MDA-MB-231 breast
  TGI: > 8.25 µM
SR leukemia
  TGI: 6.99 µM
SK-OV-3 ovarian
  TGI: > 10 µM
PC-3 prostate
  TGI: > 10 µM
SK-MEL-28 melanoma
  TGI: 8.66 µM
OVCAR-3 ovarian
  TGI: > 6.54 µM
HT29 colon
  TGI: > 10 µM
OVCAR-8 ovarian
  TGI: > 5.87 µM
SF-539 CNS
  TGI: > 10 µM
CAKI-1 renal
  TGI: > 10 µM
SK-MEL-5 melanoma
  TGI: > 10 µM
HCC-2998 colon
  TGI: > 7.84 µM
SW-620 colon
  TGI: > 10 µM
OVCAR-4 ovarian
  TGI: 9.97 µM
HL-60(TB) leukemia
  TGI: 3.79 µM
SNB-19 CNS
  TGI: > 10 µM
KM12 colon
  TGI: > 10 µM
HS 578T breast
  TGI: 7.39 µM
K-562 leukemia
  TGI: > 9.65 µM
MDA-MB-435
  TGI: 5.53 µM
SF-268 CNS
  TGI: > 10 µM
U251 CNS
  TGI: > 10 µM
MDA-N
  TGI: > 9.3 µM
786-0 renal
  TGI: > 10 µM
HCT-15 colon
  TGI: 3.93 µM
A549 NSCLC
  TGI: > 10 µM
MCF7 breast
  TGI: > 10 µM
TK-10 renal
  TGI: > 10 µM
MALME-3M melanoma
  TGI: > 6.38 µM
IGROV1 ovarian
  TGI: > 10 µM
SF-295 CNS
  TGI: > 10 µM
SNB-75 CNS
  TGI: > 10 µM
NCI-H460 lung
  TGI: > 10 µM
MOLT-4 leukemia
  TGI: > 10 µM
RXF 393 renal
  TGI: > 10 µM
UACC-257 melanoma
  TGI: > 10 µM
RPMI-8226 leukemia
  TGI: 7.76 µM
CCRF-CEM leukemia
  TGI: > 10 µM
DU-145 prostate
  TGI: > 10 µM
HOP-92 NSCLC
  TGI: > 9.51 µM
HOP-62 NSCLC
  TGI: > 10 µM
COLO 205 colon
  TGI: > 8.02 µM
NCI-H522 lung
  TGI: 5.39 µM
BT-549 breast
  TGI: > 6.94 µM
EKVX NSCLC
  TGI: > 10 µM
LOX IMVI melanoma
  TGI: 3.72 µM
NCI/ADR-RES ovarian
  TGI: > 10 µM

## Cn1c(CCC2(C)Cc3ccccc3C(=O)O2)cc2ccccc2c1=O (stereo not given)
UO-31 renal
  TGI: 37.7 µM
M14 melanoma
  TGI: 33.5 µM
SN12C renal
  TGI: > 100 µM
T-47D breast
  TGI: 83.3 µM
SK-MEL-2 melanoma
  TGI: 64.9 µM
NCI-H226 lung
  TGI: 54.7 µM
A498 renal
  TGI: > 100 µM
NCI-H23 lung
  TGI: 83 µM
OVCAR-5 ovarian
  TGI: > 100 µM
MDA-MB-231 breast
  TGI: > 100 µM
SR leukemia
  TGI: > 100 µM
SK-OV-3 ovarian
  TGI: 65.7 µM
PC-3 prostate
  TGI: 46.5 µM
SK-MEL-28 melanoma
  TGI: 76.6 µM
OVCAR-3 ovarian
  TGI: 54 µM
OVCAR-8 ovarian
  TGI: > 100 µM
SF-539 CNS
  TGI: 74.4 µM
CAKI-1 renal
  TGI: 51.6 µM
SK-MEL-5 melanoma
  TGI: 30.9 µM
HCC-2998 colon
  TGI: > 100 µM
OVCAR-4 ovarian
  TGI: > 100 µM
HL-60(TB) leukemia
  TGI: > 100 µM
SNB-19 CNS
  TGI: > 100 µM
KM12 colon
  TGI: 23.3 µM
HS 578T breast
  TGI: > 100 µM
MDA-MB-435
  TGI: 41.9 µM
U251 CNS
  TGI: > 100 µM
MDA-N
  TGI: 49.8 µM
786-0 renal
  TGI: > 100 µM
HCT-15 colon
  TGI: > 100 µM
A549 NSCLC
  TGI: > 100 µM
MCF7 breast
  TGI: 56.3 µM
MALME-3M melanoma
  TGI: > 100 µM
IGROV1 ovarian
  TGI: 86.6 µM
SF-295 CNS
  TGI: > 100 µM
SNB-75 CNS
  TGI: 58.3 µM
NCI-H460 lung
  TGI: 76.8 µM
RXF 393 renal
  TGI: 64.4 µM
RPMI-8226 leukemia
  TGI: 48 µM
CCRF-CEM leukemia
  TGI: 27 µM
DU-145 prostate
  TGI: 59.8 µM
HOP-92 NSCLC
  TGI: > 100 µM
HOP-62 NSCLC
  TGI: 48 µM
COLO 205 colon
  TGI: 84 µM
NCI-H522 lung
  TGI: 44.2 µM
BT-549 breast
  TGI: 44 µM
NCI/ADR-RES ovarian
  TGI: > 100 µM

## CCOC(=O)Oc1ccc(C(CNC(C)C)OC(=O)OCC)cc1OC(=O)OCC (stereo not given)
UO-31 renal
  TGI: > 100 µM
M14 melanoma
  TGI: > 100 µM
ACHN renal
  TGI: > 100 µM
UACC-62 melanoma
  TGI: > 100 µM
SN12C renal
  TGI: > 100 µM
T-47D breast
  TGI: > 100 µM
SK-MEL-2 melanoma
  TGI: > 100 µM
NCI-H226 lung
  TGI: > 100 µM
A498 renal
  TGI: > 100 µM
NCI-H23 lung
  TGI: > 100 µM
HCT-116 colon
  TGI: > 100 µM
OVCAR-5 ovarian
  TGI: > 100 µM
MDA-MB-231 breast
  TGI: > 100 µM
SR leukemia
  TGI: > 100 µM
SK-OV-3 ovarian
  TGI: > 100 µM
PC-3 prostate
  TGI: > 100 µM
SK-MEL-28 melanoma
  TGI: > 100 µM
OVCAR-3 ovarian
  TGI: > 100 µM
HT29 colon
  TGI: > 100 µM
OVCAR-8 ovarian
  TGI: > 100 µM
SF-539 CNS
  TGI: > 100 µM
CAKI-1 renal
  TGI: > 100 µM
SK-MEL-5 melanoma
  TGI: > 100 µM
HCC-2998 colon
  TGI: > 100 µM
SW-620 colon
  TGI: > 100 µM
OVCAR-4 ovarian
  TGI: > 100 µM
HL-60(TB) leukemia
  TGI: 98.5 µM
SNB-19 CNS
  TGI: > 100 µM
KM12 colon
  TGI: > 100 µM
HS 578T breast
  TGI: > 100 µM
K-562 leukemia
  TGI: > 100 µM
MDA-MB-435
  TGI: > 100 µM
SF-268 CNS
  TGI: > 100 µM
U251 CNS
  TGI: > 100 µM
MDA-N
  TGI: > 100 µM
786-0 renal
  TGI: > 100 µM
HCT-15 colon
  TGI: > 100 µM
A549 NSCLC
  TGI: > 100 µM
MCF7 breast
  TGI: > 100 µM
TK-10 renal
  TGI: > 100 µM
MALME-3M melanoma
  TGI: > 100 µM
IGROV1 ovarian
  TGI: > 100 µM
SF-295 CNS
  TGI: > 100 µM
SNB-75 CNS
  TGI: > 100 µM
NCI-H460 lung
  TGI: > 100 µM
MOLT-4 leukemia
  TGI: > 100 µM
RXF 393 renal
  TGI: > 100 µM
UACC-257 melanoma
  TGI: > 100 µM
RPMI-8226 leukemia
  TGI: > 100 µM
CCRF-CEM leukemia
  TGI: > 100 µM
DU-145 prostate
  TGI: > 100 µM
HOP-92 NSCLC
  TGI: > 100 µM
HOP-62 NSCLC
  TGI: > 100 µM
COLO 205 colon
  TGI: > 100 µM
NCI-H522 lung
  TGI: > 100 µM
BT-549 breast
  TGI: > 100 µM
EKVX NSCLC
  TGI: > 100 µM
LOX IMVI melanoma
  TGI: > 100 µM
NCI/ADR-RES ovarian
  TGI: > 100 µM
